Consider 18 compounds from patent publication US10131679B2, “Substituted dihydropyrrolopyrazole compound” (UBE INDUSTRIES, LTD., priority 2014, dated 2018).

Experiment [1] has as its target T1, CDK7 (Homo sapiens, UniProt P50613).
T1 construct: purchased Carna Biosciences, Inc. 04-108
As to the kind of experiment: CDK7 enzyme inhibition test. It counts as biochemical. The settings on record: Ki=IC50/(1+S/Km); 33P bound to MBP, [γ-33P]ATP, 30° C. for 20 minutes; read-out: Ki value of CDK7 inhibitory activity. As to the method:
CDK7 Enzyme Inhibition Test
The preparation of a buffer solution was performed by mixing a N-2-hydroxyethylpiperazine-N′-2-ethanesulfonic acid buffer solution (HEPES buffer solution) (pH 7.4), dithiothreitol (DTT), Triton X-100, and magnesium chloride (MgCl2). A 500 μM [γ-^33P]ATP solution was used by diluting a 10 mM ATP solution and a commercially available [γ-^33P]ATP solution (manufactured by PerkinElmer, Inc., Code No. NEG-302H) with the buffer solution. A CDK7 solution was used by diluting commercially available CDK7 (manufactured by Carna Biosciences, Inc., Catalog No. 04-108) with the buffer solution. A substrate solution was used by diluting myelin basic protein (MBP) with the buffer solution. As for the preparation of a reaction solution, the buffer solution, the 500 μM [γ-^33P]ATP solution, the CDK7 solution, and the substrate solution were mixed at 4° C. to obtain a reaction solution.
CDK7 enzyme reaction was performed by adding 5 μL of a test compound solution prepared with 10% dimethyl sulfoxide (DMSO)/90% injectable distilled water, and 45 μL of the reaction solution to a 1.5 mL microtube at 4° C. and reacting in the microtube at 30° C. for 20 minutes in a water bath incubator. After the reaction, a 10% aqueous trichloroacetic acid (TCA) solution was added to each microtube while cooled to 4° C., and mixed to terminate the reaction. The resultant was left standing at 4° C. for 10 minutes and then centrifuged in a centrifuge, and the supernatant was discarded. Next, a 2% aqueous TCA solution was added, mixed, and then centrifuged in a centrifuge, and the supernatant was discarded. This washing operation was performed twice. After the washing, precipitates were dissolved in a 1 N aqueous sodium hydroxide (NaOH) solution, and the energy quantity (radioactivity) of the reaction product was measured with a liquid scintillation counter.
The calculation of the inhibitory activity of the test compound against CDK7 was performed as a test compound concentration inhibiting 50% of the amount of ^33P bound to MBP (IC50 value) by using EXSUS (version 8.0.0 or version 8.0.1, manufactured by CAC Exicare Corp.).
The calculation of a Ki value was performed according to the following calculation expression. S means the concentration of ATP contained in the reaction solution, and Km means a Michaelis-Menten constant. Ki=IC50/(1+S/Km)

The test system of experiment [2] is human large intestine cancer cell line (HCT-116). As to the kind of experiment: Human large intestine cancer (HCT-116) cell growth inhibition test. It counts as cell-based. Conditions: 72 h, HCT-116, culture for 3 days, sulforhodamine B absorbance. The protocol:
Human Large Intestine Cancer (HCT-116) Cell Growth Inhibition Test
The measurement of a human large intestine cancer cell growth inhibitory effect was carried out by modifying the method of Simak et al. (Cancer Research, 69, 6208 (2009)).
A human large intestine cancer cell line (HCT-116) (manufactured by DS Pharma Biomedical Co., Ltd., Cat. No. EC91091005) was cultured in McCoy's 5a (manufactured by GIBCO/Thermo Fisher Scientific, Inc., REF. 16600-082) medium containing 10% FBS (manufactured by GIBCO/Thermo Fisher Scientific, Inc., REF. 10082-147) and 1% penicillin/streptomycin/amphotericin B (manufactured by GIBCO/Thermo Fisher Scientific, Inc., REF. 15240-096) and inoculated at 1.0×10^3 cells/well in a 96-well plate (manufactured by Corning Inc., REF. 353072). After overnight culture in a carbon dioxide incubator, it was replaced with a fresh McCoy's 5a medium containing 10% FBS on the next day, and a test compound dissolved in DMSO (manufactured by Wako Pure Chemical Industries, Ltd., Code No. 043-07216) (final DMSO concentration: 0.1%) was added and left standing in a carbon dioxide incubator. After culturing for 3 days, the absorbance of each well was measured by using In Vitro Toxicology Assay Kit Sulforhodamine B based (manufactured by Sigma-Aldrich Co. LLC., Pcode 1001910706).
The rate of inhibition of cell growth at each concentration was calculated from the test compound concentration and the absorbance of sulforhodamine B, and the concentration of the test compound necessary for inhibiting 50% of cell growth (IC50 value) was calculated by using EXSUS (version 8.0.0 or version 8.0.1, manufactured by CAC Exicare Corp.).

SMILES strings stand for the structures.

T1 sequence (P50613 whole entry): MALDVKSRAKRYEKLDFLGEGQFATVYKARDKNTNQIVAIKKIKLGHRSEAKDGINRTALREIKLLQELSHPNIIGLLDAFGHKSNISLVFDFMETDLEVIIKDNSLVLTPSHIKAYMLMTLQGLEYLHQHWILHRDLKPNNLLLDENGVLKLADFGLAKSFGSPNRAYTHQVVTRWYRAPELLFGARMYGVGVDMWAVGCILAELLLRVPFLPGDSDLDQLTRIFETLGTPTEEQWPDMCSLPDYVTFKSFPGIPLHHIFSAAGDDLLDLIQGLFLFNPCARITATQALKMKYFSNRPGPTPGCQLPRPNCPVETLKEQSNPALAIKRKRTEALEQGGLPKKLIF
T1 sequence (P51946 whole entry partner): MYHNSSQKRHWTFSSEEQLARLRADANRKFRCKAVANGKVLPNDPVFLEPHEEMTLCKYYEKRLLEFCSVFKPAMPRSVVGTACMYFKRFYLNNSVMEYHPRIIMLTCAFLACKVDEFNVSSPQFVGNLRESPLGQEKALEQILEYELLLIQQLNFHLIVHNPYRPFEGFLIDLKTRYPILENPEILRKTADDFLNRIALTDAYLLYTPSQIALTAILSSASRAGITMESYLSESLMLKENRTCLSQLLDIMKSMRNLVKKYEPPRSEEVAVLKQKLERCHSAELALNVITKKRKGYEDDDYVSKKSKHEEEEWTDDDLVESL
T1 sequence (P51948 whole entry partner): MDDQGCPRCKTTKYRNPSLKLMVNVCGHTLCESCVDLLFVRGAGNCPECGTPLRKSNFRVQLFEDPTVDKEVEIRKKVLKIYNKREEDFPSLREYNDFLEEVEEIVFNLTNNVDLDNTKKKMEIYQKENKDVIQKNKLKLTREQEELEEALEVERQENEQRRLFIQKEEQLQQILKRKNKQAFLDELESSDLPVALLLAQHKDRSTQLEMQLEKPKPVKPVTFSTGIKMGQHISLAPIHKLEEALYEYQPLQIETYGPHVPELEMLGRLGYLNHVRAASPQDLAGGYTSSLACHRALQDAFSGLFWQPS

As for `CC(C)[C@@H](CC(C)(C)O)NC(=O)N1Cc2c(NC(=O)C3([Si](C)(C)C)CCC3)n[nH]c2C1(C)C` [IV-815, (R)—N-(5-Hydroxy-2,5-dimethylhexan-3-yl)-6,6-dimethyl-3-[1-(trimethylsilyl)cyclobutanecarboxamido]-4,6-dihydropyrrolo[3,4-c]pyrazole-5(1H)-carboxamide], in experiment [1], the inhibition constant Ki (commonly a dissociation constant, usually derived from enzyme kinetics or from competition with a known ligand) is not above 0.05 µM. In addition, the IC50 (commonly the concentration that gives 50% inhibition) in experiment [2] was not above 0.5 µM.

Consider `CO[C@H](C(=O)N1Cc2c(NC(=O)C3([Si](C)(C)C)CCC3)n[nH]c2C1(C)C)c1ccccc1` [IV-1176, (S)—N-[5-(2-Methoxy-2-phenylacetyl)-6,6-dimethyl-1,4,5,6-tetrahydropyrrolo[3,4-c]pyrazol-3-yl]-1-(trimethylsilyl)cyclobutanecarboxamide], for which, in experiment [1], the Ki is not above 0.05 µM. For the same compound, the IC50 in experiment [2] was not above 0.5 µM. For `COC(C(=O)N1Cc2c(NC(=O)C3([Si](C)(C)C)CCC3)n[nH]c2C1(C)C)c1cccs1` (single isomer, unassigned; (+)) [IV-1547, (+)-N-{5-[2-Methoxy-2-(thiophen-2-yl)acetyl]-6,6-dimethyl-1,4,5,6-tetrahydropyrrolo[3,4-c]pyrazol-3-yl}-1-(trimethylsilyl)cyclobutanecarboxamide], in experiment [1], the Ki was not above 0.05 µM. `CC(C)(CO)C(NC(=O)N1Cc2c(NC(=O)C3([Si](C)(C)C)CCC3)n[nH]c2C1(C)C)c1ccccc1` (single isomer, unassigned; (+)) [IV-672, (+)-N-(3-Hydroxy-2,2-dimethyl-1-phenylpropyl)-6,6-dimethyl-3-[1-(trimethylsilyl)cyclobutanecarboxamido]-4,6-dihydropyrrolo[3,4-c]pyrazole-5(1H)-carboxamide] showed an IC50 in experiment [2] not above 0.5 µM.

In the case of `CC1(C)c2[nH]nc(NC(=O)C3([Si](C)(C)C)CCC3)c2CN1C(=O)NC[C@@H](O)c1ccccc1` [IV-787, (S)—N-(2-Hydroxy-2-phenylethyl)-6,6-dimethyl-3-[1-(trimethylsilyl)cyclobutanecarboxamido]-4,6-dihydropyrrolo[3,4-c]pyrazole-5(1H)-carboxamide], the Ki in experiment [1] is not above 0.05 µM. The compound also registered an IC50 in experiment [2] not above 0.5 µM. The like results for `CC1(C)c2[nH]nc(NC(=O)C3([Si](C)(C)C)CCC3)c2CN1C(=O)C(CO)Oc1ccccc1` (centres unmarked) [IV-1330, N-[5-(3-Hydroxy-2-phenoxypropanoyl)-6,6-dimethyl-1,4,5,6-tetrahydropyrrolo[3,4-c]pyrazol-3-yl]-1-(trimethylsilyl)cyclobutanecarboxamide] were, in that order, not above 0.05 µM and not above 0.5 µM. The like results for `CC1(C)c2[nH]nc(NC(=O)C3([Si](C)(C)C)CC3)c2CN1C(=O)[C@H](CO)c1ccccc1` [III-592, (S)—N-[5-(3-Hydroxy-2-phenylpropanoyl)-6,6-dimethyl-1,4,5,6-tetrahydropyrrolo[3,4-c]pyrazol-3-yl]-1-(trimethylsilyl)cyclopropanecarboxamide] were, in that order, not above 0.05 µM and not above 0.5 µM. As to `CCC(O)(CC)C[C@@H](NC(=O)N1Cc2c(NC(=O)C3([Si](C)(C)C)CCC3)n[nH]c2C1(C)C)c1ccccc1` [IV-759, (R)—N-(3-Ethyl-3-Hydroxy-1-phenylpentyl)-6,6-dimethyl-3-[1-(trimethylsilyl)cyclobutanecarboxamido]-4,6-dihydropyrrolo[3,4-c]pyrazole-5(1H)-carboxamide], in experiment [2], the IC50 is not above 0.5 µM. For `CN(C)CC(Oc1ccccc1)C(=O)N1Cc2c(NC(=O)C3([Si](C)(C)C)CCC3)n[nH]c2C1(C)C` (centres unmarked) [IV-1372, N-{5-[3-(Dimethylamino)-2-phenoxypropanoyl]-6,6-dimethyl-1,4,5,6-tetrahydropyrrolo[3,4-c]pyrazol-3-yl}-1-(trimethylsilyl)cyclobutanecarboxamide], the Ki in experiment [1] was not above 0.05 µM. In experiment [2], `COCCC(C(=O)N1Cc2c(NC(=O)C3([Si](C)(C)C)CCC3)n[nH]c2C1(C)C)c1ccccc1` (centres unmarked) [IV-1224, N-[5-(4-Methoxy-2-phenylbutanoyl)-6,6-dimethyl-1,4,5,6-tetrahydropyrrolo[3,4-c]pyrazol-3-yl]-1-(trimethylsilyl)cyclobutanecarboxamide] displayed an IC50 not above 0.5 µM.

Compound `CC(Oc1ccccc1Cl)C(=O)N1Cc2c(NC(=O)C3([Si](C)(C)C)CCC3)n[nH]c2C1(C)C` (centres unmarked) [IV-1266, N-{5-[2-(2-Chlorophenoxy)propanoyl]-6,6-dimethyl-1,4,5,6-tetrahydropyrrolo[3,4-c]pyrazol-3-yl}-1-(trimethylsilyl)cyclobutanecarboxamide] showed a half-maximal inhibitory concentration (IC50) in experiment [2] not above 0.5 µM.

Consider `CC(C)(CO)C(NC(=O)N1Cc2c(NC(=O)C3([Si](C)(C)C)CCC3)n[nH]c2C1(C)C)c1cccc(F)c1` (single isomer, unassigned; (-)) [IV-920, (−)-N-[1-(3-Fluorophenyl)-3-hydroxy-2,2-dimethylpropyl]-6,6-dimethyl-3-[1-(trimethylsilyl)cyclobutanecarboxamido]-4,6-dihydropyrrolo[3,4-c]pyrazole-5(1H)-carboxamide], for which the Ki in experiment [1] is not above 0.05 µM. On the same count and under the same terms, then `CC1(C)c2[nH]nc(NC(=O)C3([Si](C)(C)C)CCC3)c2CN1C(=O)NC(CO)c1cccnc1` (centres unmarked) [IV-542, N-[2-Hydroxy-1-(pyridin-3-yl)ethyl]-6,6-dimethyl-3-[1-(trimethylsilyl)cyclobutanecarboxamido]-4,6-dihydropyrrolo[3,4-c]pyrazole-5(1H)-carboxamide], with not above 0.05 µM. The compound `CC1(C)c2[nH]nc(NC(=O)C3([Si](C)(C)C)CCC3)c2CN1C(=O)CC(CO)c1ccccc1` (centres unmarked) [IV-558, N-[5-(4-Hydroxy-3-phenylbutanoyl)-6,6-dimethyl-1,4,5,6-tetrahydropyrrolo[3,4-c]pyrazol-3-yl]-1-(trimethylsilyl)cyclobutanecarboxamide] showed an IC50 in experiment [2] not above 0.5 µM. The same measure, in the same setting: then `CC1(C)c2[nH]nc(NC(=O)C3([Si](C)(C)C)CCC3)c2CN1C(=O)C(Oc1ccccc1)c1ccccc1` (centres unmarked) [IV-1211, N-[6,6-Dimethyl-5-(2-phenoxy-2-phenylacetyl)-1,4,5,6-tetrahydropyrrolo[3,4-c]pyrazol-3-yl]-1-(trimethylsilyl)cyclobutanecarboxamide], with not above 0.5 µM; and `CC1(C)c2[nH]nc(NC(=O)C3([Si](C)(C)C)CCC3)c2CN1C(=O)CC(O)c1ccccc1` (centres unmarked) [IV-562, N-[5-(3-Hydroxy-3-phenylpropanoyl)-6,6-dimethyl-1,4,5,6-tetrahydropyrrolo[3,4-c]pyrazol-3-yl]-1-(trimethylsilyl)cyclobutanecarboxamide], with not above 0.5 µM; and `CC(Oc1cccc(Cl)c1)C(=O)N1Cc2c(NC(=O)C3([Si](C)(C)C)CCC3)n[nH]c2C1(C)C` (centres unmarked) [IV-1268, N-{5-[2-(3-Chlorophenoxy)propanoyl]-6,6-dimethyl-1,4,5,6-tetrahydropyrrolo[3,4-c]pyrazol-3-yl}-1-(trimethylsilyl)cyclobutanecarboxamide], with not above 0.5 µM. In experiment [2], `CC1(C)c2[nH]nc(NC(=O)C3([Si](C)(C)C)CCC3)c2CN1C(=O)N[C@@H](CO)Cc1ccccc1` [IV-861, (R)—N-(1-Hydroxy-3-phenylpropan-2-yl)-6,6-dimethyl-3-[1-(trimethylsilyl)cyclobutanecarboxamido]-4,6-dihydropyrrolo[3,4-c]pyrazole-5(1H)-carboxamide] had an IC50 not above 0.5 µM.
